pIC50, pKi: −log10 of the molar value. Bounds are passed on as bounds.

Data set [1] has as its target T1, Adenosine receptor A1 (Homo sapiens, UniProt P30542).
T1 sequence (P30542 whole entry): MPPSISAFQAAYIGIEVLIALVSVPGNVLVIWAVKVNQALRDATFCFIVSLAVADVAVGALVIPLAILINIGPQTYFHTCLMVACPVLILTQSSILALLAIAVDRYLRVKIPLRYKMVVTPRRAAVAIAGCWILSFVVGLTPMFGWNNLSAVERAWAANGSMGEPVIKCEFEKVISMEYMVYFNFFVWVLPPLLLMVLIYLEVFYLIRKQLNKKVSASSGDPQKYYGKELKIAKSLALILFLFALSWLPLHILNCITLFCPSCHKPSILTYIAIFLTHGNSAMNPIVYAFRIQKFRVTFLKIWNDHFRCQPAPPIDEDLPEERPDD
Put plainly: Displacement of [3H]CCPA from human recombinant adenosine A1 receptor expressed in CHO cells after 90 mins by liquid scintillation counting analysis. The data set is classed as cell-based. In general terms: Loss of bound radioactivity is the signal in a displacement assay; it reports binding, not function.

Data set [2] has as its target T2, Amine oxidase [flavin-containing] B (Homo sapiens, UniProt P27338).
T2 sequence (P27338 whole entry): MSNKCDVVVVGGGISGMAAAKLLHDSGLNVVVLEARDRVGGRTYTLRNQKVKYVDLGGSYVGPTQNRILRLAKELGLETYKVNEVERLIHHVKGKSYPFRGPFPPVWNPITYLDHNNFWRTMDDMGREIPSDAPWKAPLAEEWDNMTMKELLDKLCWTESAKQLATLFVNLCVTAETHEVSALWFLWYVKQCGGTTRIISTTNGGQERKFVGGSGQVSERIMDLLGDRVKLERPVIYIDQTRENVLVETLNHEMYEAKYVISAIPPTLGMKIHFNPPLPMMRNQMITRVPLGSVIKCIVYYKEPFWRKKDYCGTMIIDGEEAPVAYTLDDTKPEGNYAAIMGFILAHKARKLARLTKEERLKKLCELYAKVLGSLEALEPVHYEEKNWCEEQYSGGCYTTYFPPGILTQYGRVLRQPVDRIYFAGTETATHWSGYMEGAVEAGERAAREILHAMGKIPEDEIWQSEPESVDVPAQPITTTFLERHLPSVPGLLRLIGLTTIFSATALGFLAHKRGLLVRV
Put plainly: Inhibition of recombinant human MAO-B expressed in baculovirus-infected insect cells using p-tyramine as substrate incubated for 30 mins prior to substrate addition measured for 45 mins by amplex red reagent-based microplate fluorescence reader analysis. The data set is classed as cell-based.

Data set [3] has as its target T3, Adenosine receptor A3 (Homo sapiens, UniProt P0DMS8).
T3 sequence (P0DMS8 whole entry): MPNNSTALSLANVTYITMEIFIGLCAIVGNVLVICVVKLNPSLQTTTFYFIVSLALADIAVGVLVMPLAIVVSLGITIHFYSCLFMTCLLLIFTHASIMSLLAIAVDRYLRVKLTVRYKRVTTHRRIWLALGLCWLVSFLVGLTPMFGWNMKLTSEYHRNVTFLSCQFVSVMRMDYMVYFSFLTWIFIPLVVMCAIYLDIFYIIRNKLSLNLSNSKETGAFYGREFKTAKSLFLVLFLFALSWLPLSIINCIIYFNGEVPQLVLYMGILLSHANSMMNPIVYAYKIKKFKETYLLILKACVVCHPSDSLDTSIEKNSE
Put plainly: Displacement of [3H]PSB-11 from human recombinant adenosine A3 receptor expressed in CHO cells after 60 mins by liquid scintillation counting analysis. The data set is classed as cell-based.

In data set [4] the target is T4, Adenosine receptor A2b (Homo sapiens, UniProt P29275).
T4 sequence (P29275 whole entry): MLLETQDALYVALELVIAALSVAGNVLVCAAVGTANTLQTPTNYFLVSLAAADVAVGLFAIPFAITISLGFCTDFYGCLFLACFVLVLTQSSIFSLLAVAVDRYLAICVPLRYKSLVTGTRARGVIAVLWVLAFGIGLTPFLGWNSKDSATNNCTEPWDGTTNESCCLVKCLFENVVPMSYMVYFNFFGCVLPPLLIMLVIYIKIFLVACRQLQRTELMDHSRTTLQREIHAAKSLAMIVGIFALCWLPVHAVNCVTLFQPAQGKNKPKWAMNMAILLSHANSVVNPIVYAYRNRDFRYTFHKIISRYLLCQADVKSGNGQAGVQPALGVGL
The experiment in a line: Displacement of [3H]PSB-603 from human recombinant adenosine A2B receptor expressed in CHO cells after 75 mins by liquid scintillation counting analysis. Format: cell-based.

The target of data set [5] is T5, Amine oxidase [flavin-containing] B (Rattus norvegicus, UniProt P19643).
T5 sequence (P19643 whole entry): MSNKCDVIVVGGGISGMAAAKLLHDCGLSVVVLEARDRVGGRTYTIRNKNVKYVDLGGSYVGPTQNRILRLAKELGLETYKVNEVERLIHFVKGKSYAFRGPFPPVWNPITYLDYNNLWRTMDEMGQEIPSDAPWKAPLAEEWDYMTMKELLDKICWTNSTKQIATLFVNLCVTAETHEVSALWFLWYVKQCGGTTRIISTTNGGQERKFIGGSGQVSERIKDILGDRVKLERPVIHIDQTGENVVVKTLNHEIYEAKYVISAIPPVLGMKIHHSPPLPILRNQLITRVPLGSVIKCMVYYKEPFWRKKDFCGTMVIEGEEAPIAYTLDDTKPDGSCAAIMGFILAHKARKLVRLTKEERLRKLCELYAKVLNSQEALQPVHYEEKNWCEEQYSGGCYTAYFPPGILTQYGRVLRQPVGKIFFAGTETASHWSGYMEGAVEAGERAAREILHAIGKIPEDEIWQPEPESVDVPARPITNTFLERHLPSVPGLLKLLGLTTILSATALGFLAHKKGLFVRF
The experiment in a line: Inhibition of MAO-B in mitochondria-enriched Sprague-Dawley rat liver fractions using p-tyramine as substrate incubated for 30 mins prior to substrate addition measured for 45 mins by amplex red reagent-based microplate fluorescence reader analysis.

For data set [6], the target named is Adenosine receptor A2a (Rattus norvegicus, UniProt P30543). Put plainly: Displacement of [3H]MSX2 from adenosine A2A receptor in rat brain striatal membranes after 30 mins by liquid scintillation counting analysis. The data set is classed as cell membranes, Membrane.
Adenosine receptor A2a (Rattus norvegicus, UniProt P30543), sequence (P30543 whole entry): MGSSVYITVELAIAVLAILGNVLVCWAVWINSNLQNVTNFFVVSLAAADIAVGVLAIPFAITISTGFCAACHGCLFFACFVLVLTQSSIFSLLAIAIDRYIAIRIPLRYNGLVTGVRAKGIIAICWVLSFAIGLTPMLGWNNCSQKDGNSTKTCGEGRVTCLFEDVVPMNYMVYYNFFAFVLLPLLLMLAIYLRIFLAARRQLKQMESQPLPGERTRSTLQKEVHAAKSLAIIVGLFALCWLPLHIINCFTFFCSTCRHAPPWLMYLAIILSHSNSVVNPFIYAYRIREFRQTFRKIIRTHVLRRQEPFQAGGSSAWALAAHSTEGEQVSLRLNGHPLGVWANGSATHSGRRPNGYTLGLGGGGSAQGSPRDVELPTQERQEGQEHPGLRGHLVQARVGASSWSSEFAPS
Data set [7] is described as follows: Selectivity ratio of IC50 for MAO-B in mitochondria-enriched Sprague-Dawley rat liver fractions to IC50 for recombinant human MAO-B.
The species named for data set [8] is Homo sapiens. Put plainly: Selectivity ratio of Ki for human recombinant adenosine A2B receptor to Ki for human recombinant adenosine A2A receptor.
The target of data set [9] is T2, Amine oxidase [flavin-containing] B. Put plainly: Reversible inhibition of human MAO-B using p-tyramine as substrate at IC80 incubated for 22 mins followed by substrate addition measured for 5 hrs by fluorescence assay.
Data set [10] is filed under the species Homo sapiens. The experiment in a line: Selectivity ratio of Ki for human recombinant adenosine A1 receptor to Ki for human recombinant adenosine A2A receptor.
Data set [11] deals with Adenosine receptor A2a (Homo sapiens, UniProt P29274). The experiment in a line: Displacement of [3H]MSX2 from human recombinant adenosine A2A receptor expressed in CHO cells after 30 mins by liquid scintillation counting analysis. Format: cell-based.
Adenosine receptor A2a (Homo sapiens, UniProt P29274), sequence (P29274 whole entry): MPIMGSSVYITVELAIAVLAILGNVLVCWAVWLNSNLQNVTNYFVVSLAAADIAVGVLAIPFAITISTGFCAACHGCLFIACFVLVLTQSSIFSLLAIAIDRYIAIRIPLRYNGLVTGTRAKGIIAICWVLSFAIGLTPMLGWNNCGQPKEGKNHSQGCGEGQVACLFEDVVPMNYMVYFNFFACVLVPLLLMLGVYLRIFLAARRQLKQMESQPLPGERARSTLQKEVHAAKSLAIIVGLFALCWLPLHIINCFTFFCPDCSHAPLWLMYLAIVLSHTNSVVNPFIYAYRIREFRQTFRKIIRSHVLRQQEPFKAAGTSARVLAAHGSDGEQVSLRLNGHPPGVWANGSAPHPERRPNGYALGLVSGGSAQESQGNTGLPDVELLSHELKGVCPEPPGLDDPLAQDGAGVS
The target of data set [12] is T6, Adenosine receptor A1 (Rattus norvegicus, UniProt P25099).
T6 sequence (P25099 whole entry): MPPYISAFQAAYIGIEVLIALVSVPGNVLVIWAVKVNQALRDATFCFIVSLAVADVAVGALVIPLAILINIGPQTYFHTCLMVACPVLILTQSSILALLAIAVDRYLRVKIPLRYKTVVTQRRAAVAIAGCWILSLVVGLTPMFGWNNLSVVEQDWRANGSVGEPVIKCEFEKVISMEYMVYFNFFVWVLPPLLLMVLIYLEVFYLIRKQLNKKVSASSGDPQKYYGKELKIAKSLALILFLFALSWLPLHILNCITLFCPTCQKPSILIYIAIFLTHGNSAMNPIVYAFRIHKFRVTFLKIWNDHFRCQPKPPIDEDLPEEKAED
The experiment in a line: Displacement of [3H]CCPA from adenosine A1 receptor in rat brain cortical membranes after 90 mins by liquid scintillation counting analysis. The data set is classed as cell membranes, Membrane.

The species entered for data set [13] is Homo sapiens. The experiment in a line: Selectivity ratio of Ki for human recombinant adenosine A3 receptor to Ki for human recombinant adenosine A2A receptor.
The nature of data set [14]: Selectivity ratio of Ki for adenosine A2A receptor in rat brain striatal membranes to Ki for human recombinant adenosine A2A receptor. Conditions: Membrane; call rule not given here. Format: cell membranes.
Data set [15] can be described thus: Selectivity ratio of Ki for human recombinant adenosine A1 receptor to Ki for adenosine A1 receptor in rat brain cortical membranes. The data set is classed as cell membranes. Conditions: Membrane.

For the molecule `O=C(CCc1ccccc1)Nc1nc2ccccc2c(=O)s1`, the pKi (as a rule, the negative decadic logarithm of the Ki, by convention in mol/L) was 5.98 in data set [1]; 6.41 in [3]; 6.44 in data set [4]; 6.99 in data set [6]; 7.09 in data set [11]; 6.37 in data set [12]. For the same molecule, the results for the pIC50 in [2] and in data set [5] were 7.75 and 7.37, respectively. Moreover, the Ratio IC50 in data set [7] was 1.4. In addition, the Ratio Ki came out at 5 in data set [8], 13 in [10] and 5 in [13]. In addition, the “inhibition (INH)” value in data set [9] was “Active”.
As for `O=C(Nc1nc2ccccc2c(=O)s1)c1ccc(C(=O)N2CCN(Cc3ccc(Cl)cc3)CC2)cc1`, the pKi in [1] was 5.36; in [3], under 6.00; in data set [4] it was under 6.00; in data set [6], 6.31; in data set [11], 7.35. In addition, the pIC50 (commonly the IC50 on a negative log10 scale, so that one unit is a factor of ten) in [2] is under 5.00. In [7], the Ratio IC50 amounted to 1.4. Further, the Ratio Ki in [8] was over 22; in [10], 100; in data set [13], over 22.
`COc1cccc(CCC(=O)Nc2nc3ccccc3c(=O)s2)c1`: the negative logarithm of the Ki (pKi) is 5.86 in [1]; 6.76 in [3]; 6.65 in data set [4]; 6.53 in data set [6]; 7.19 in data set [11]; 6.44 in data set [12]. The pIC50 in [2] is 7.02; in data set [5], 6.21. Also, the Ratio Ki in data set [14] was over 4; in [8] it was 4; in data set [10] it was 21; in data set [13] it was 3. Moreover, the Ratio IC50 in data set [7] stood at 1.4. The “inhibition (INH)” value in data set [9] is listed as “Active”.
Regarding `O=C(CCCc1ccccc1)Nc1nc2sccc2c(=O)s1`, the pKi in data set [1] is 6.44; in data set [3], under 6.00; in [4] it was 6.44; in [6], 6.16; in data set [11], 7.08; in data set [12] it was 7.45. Moreover, the pIC50 in data set [2] was 7.16; in data set [5] it was 6.54. Moreover, the Ratio IC50 in [7] stood at 1.4. Further, the results for the Ratio Ki in data set [8], in [10] and in [13] were 4, 4 and 12, respectively. Besides, in data set [9], the “inhibition (INH)” value is on record as “Active”.
In the case of `C[C@H](NCc1ccc(OCc2cccc(F)c2)cc1)C(N)=O` [SAFINAMIDE], the pIC50 in data set [5] is 7.59. Besides, the “inhibition (INH)” value in data set [9] was “Active”.
On to `O=C(C/C=C/c1cccc(Cl)c1)Nc1nc2ccccc2c(=O)s1`, for which the negative-log Ki (pKi) in data set [1] is 6.25; in [3], under 6.00; in [4], under 6.00; in data set [6], at most 5.00; in data set [12], 7.94. Moreover, the pIC50 in [2] is under 6.00; in data set [5], 6.08. In [7], the Ratio IC50 turned out to be 1.4. Further, in data set [15], the Ratio Ki was under 45.
Consider `COc1cccc(/C=C/C(=O)Nc2nc3ccccc3c(=O)s2)c1`, for which the negative logarithm of the Ki (pKi) in [1] was under 5.00; in data set [3], under 6.00; in [4] it was 6.17; in [6], 6.60; in [11], 7.20; in [12] it was 6.69. For the same molecule, the values for the pIC50 in [2] and in data set [5] were 6.33 and 6.55, respectively. Further, the Ratio Ki was 10 in data set [8] and over 16 in data set [13].
As to `O=C(Nc1nc2ccccc2c(=O)s1)c1ccc(C(=O)N2CCN(Cc3ccccc3Cl)CC2)cc1`, the pKi in [1] is under 6.00; in data set [3], under 6.00; in data set [4] it was under 6.00; in data set [6], under 5.00; in [11], under 6.00. In addition, the pIC50 in data set [2] was under 5.00. In addition, the Ratio IC50 in [7] came to 1.4.
In the case of `COc1cccc(CCCC(=O)Nc2nc3ccccc3c(=O)s2)c1`, the negative logarithm of the Ki (pKi) in data set [1] was 6.67; in [3], 6.42; in data set [4] it was 6.52; in [6], 6.25; in [11], 6.94; in data set [12], 7.65. For the same molecule, the pIC50 was 6.41 in [2] and 5.89 in data set [5]. Moreover, in data set [7], the Ratio IC50 amounted to 1.4.
Consider `COc1cccc(/C=C/CC(=O)Nc2nc3ccccc3c(=O)s2)c1`, for which the pKi in data set [1] is 6.30; in data set [3] it was 6.94; in data set [4] it was at most 6.00; in data set [6], 6.50; in data set [11], 7.04; in [12], 7.95. Moreover, the pIC50 in [2] was 6.62; in data set [5] it was 5.69. In addition, the Ratio IC50 in data set [7] worked out at 1.4. Further, the Ratio Ki in data set [15] was under 45.
`COCCOc1ccc(N2CCN(CCn3ncc4c3nc(N)n3nc(-c5ccco5)nc43)CC2)cc1` [PRELADENANT]: the pKi was 6.53 in [1]; under 6.00 in data set [3]; under 6.00 in data set [4]; 9.18 in data set [6]; 9.05 in data set [11]; 7.16 in data set [12].
Consider `O=C(C/C=C/c1ccccc1)Nc1nc2ccccc2c(=O)s1`, for which the pKi in data set [1] was 6.09; in data set [3] it was 6.80; in [4] it was 6.92; in data set [6], 6.09; in data set [11], 6.93; in data set [12] it was 7.28. Moreover, the figures for the pIC50 in data set [2] and in data set [5] were 7.40 and 6.44, respectively. Moreover, the Ratio IC50 in data set [7] stood at 1.4.
